Experimental data from US8470870B2, “Solid forms of an anti-HIV phosphoindole compound” (Idenix Pharmaceuticals, Inc., priority 2008, dated 2013).
In brackets after ≈: the same amount, converted by molar mass.

How the values were obtained:
[1] = Apparent kinetic solubility in 2-butanol of different crystalline forms; assay type: physicochemical; conditions: dry 2-butanol; for relative solubility among Forms I, VIII and IX: ambient temperature; for Apparent Kinetic Solubility: 25° C.
Protocol: Milligram size quantities of each sample were placed into a vial. Solvent was added and the vials were vortexed for a few minutes, followed by visual observation for remaining solids. The solvent was incrementally added until the solids were dissolved, or a maximum volume of solvent was added and the experiment was terminated. Parallel to that, a suspension is made and filtered, the solids was examined by XRD to determine if a phase transformation occurs. Solubility experiments were performed to determine the solubility of the different polymorphic forms. […] Solubility data were collected on polymorphs I, VIII, and IX. Two of the forms were anhydrous and one was hydrated. […] Excess solids were placed in a test tube, solvent was then added in the tube, vortexed, and examined visually to determine if all the solids had dissolved. Attempts were made to prepare saturated or nearly saturated solutions of each polymorphic form by exposing excess solids of each polymorph to dry 2-butanol.

[2] = Competitive slurry experiments; assay type: physicochemical
Protocol: Competitive slurry experiments were performed by mixing excess amounts of the polymorphic forms together in different solvents and agitating isothermally. These types of slurry experiments were used in attempts to determine which phase is more thermodynamically stable under the conditions used. Slurry experiments were generally used to examine the energy relationship between Form I and Form IX, and to examine how these two forms may interconvert with the monohydrate (Form VIII).

[3] = Non-competitive slurry experiments in neat solvents; assay type: physicochemical
Protocol: Noncompetitive slurry experiments were performed. These experiments rely on solubility differences of different polymorphic forms (if the compound exists in different polymorphic forms). […] Essentially, when a solid is dissolved in a (slurry) solvent, a saturated solution eventually results. The solution is saturated with respect to the polymorphic form dissolved. […] In addition, noncompetitive slurry experiments are often useful in identifying solvents that form solvates with the compound. […] The solids were mechanically filtered and analyzed by XRD to determine the resulting form. To avoid possible desolvation or physical change after isolation, the samples were not subjected to drying before X-ray analysis.

[4] = Solubility in water (preliminary, in words); assay type: physicochemical
Protocol: Milligram size quantities of each sample were placed into a vial. Solvent was added and the vials were vortexed for a few minutes, followed by visual observation for remaining solids. The solvent was incrementally added until the solids were dissolved, or a maximum volume of solvent was added and the experiment was terminated. Parallel to that, a suspension is made and filtered, the solids was examined by XRD to determine if a phase transformation occurs. Solubility experiments were performed to determine the solubility of the different polymorphic forms. […] Solubility data were collected on polymorphs I, VIII, and IX. Two of the forms were anhydrous and one was hydrated.

[5] = Form I/Form VIII competitive slurry in water-methanol mixtures; assay type: physicochemical
Protocol: Additional competitive slurry experiments were performed by mixing excess amounts of polymorphic forms in a solvent system and agitating the mixture isothermally. The competitive slurry experiments were used in attempts to identify the critical water activity levels for the interconversion of Form I (anhydrate target form) and Form VIII (monohydrate form). This was used to identify the water content range that can be used during processing to successfully isolate Form I in a reproducible manner. In each competitive slurry experiment, an excess of Form I and Form VIII of known weight was added to a water-methanol mixture. The suspension was slurred at ambient temperature (22° C.) or 45° C. continuously for up to 12 days in order to obtain thermodynamic equilibrium. Excess solids were collected at different slurry times by centrifugation, and then characterized by XRD. To avoid possible desolvation or physical change after isolation, the samples were not subjected to drying before X-ray analysis.

[6] = Solubility in recrystallization solvents (Panel 1); assay type: physicochemical; conditions: organic solvent or mixture, thermodynamic from solid, saturation temp. 25 °C
Protocol: Milligram size quantities of each sample were placed into a vial. Solvent was added and the vials were vortexed for a few minutes, followed by visual observation for remaining solids. The solvent was incrementally added until the solids were dissolved, or a maximum volume of solvent was added and the experiment was terminated. Parallel to that, a suspension is made and filtered, the solids was examined by XRD to determine if a phase transformation occurs. Saturated solutions were prepared by agitating excess test material in contact with the various solvent systems at the saturation temperature. The mother liquor was separated from the residual solids by filtration. The mother liquor was then heated above the saturation temperature (overheated) to dissolve any remaining solids. The temperature of the solutions was then adjusted to the growth temperature and a controlled nitrogen shear flow was introduced to begin solvent evaporation.

[7] = system: several serine proteases like S. griseus proteases A and B, α-chymotrypsin, chymase, and subtilisin; conditions: cited from earlier work
[8] = Hydration experiment at 95% RH; assay type: physicochemical; conditions: 18 days
Protocol: Hydration experiments were performed on (2-carbamoyl-5-chloro-1H-indol-3-yl)-[3-((E)-2-cyano-vinyl)-5-methyl-phenyl]-(R)-phosphinic acid methyl ester Form III sample. A known weight of sample was exposed to a 95% RH environment using a saturated solution of […].

Annealing experiment = assay type: physicochemical; conditions: 14 days at 46° C.
Protocol: In addition to the solvent recrystallization experiments and slurry experiments, annealing experiments were performed. These experiments entailed looking for structural changes as a function of temperature. This was accomplished by using variable-temperature XRD, and variable temperature ovens, and DSC experiments.

COP(=O)(c1cc(C)cc(/C=C/C#N)c1)c1c(C(N)=O)[nH]c2ccc(Cl)cc12 (stereo not shown) [Form IX, (2-carbamoyl-5-chloro-1H-indol-3-yl)-[3-((E)-2-cyano-vinyl)-5-methyl-phenyl]phosphinic acid methyl ester]
solubility kinetic ([1]; 25 °C, organic solvent or mixture, thermodynamic from solid): 160 µg/mL (≈ 387 µM)
relative solubility among Forms I, VIII and IX [1]: lowest solubility
thermodynamic stability among forms ([2]; ambient temperature and pressure): most stable form
form after slurry in water ([2]; water, several days): remained unchanged

CO[P@](=O)(c1cc(C)cc(/C=C/C#N)c1)c1c(C(N)=O)[nH]c2ccc(Cl)cc12 [Form I, (2-carbamoyl-5-chloro-1H-indol-3-yl)-[3-((E)-2-cyano-vinyl)-5-methyl-phenyl]-(R)-phosphinic acid methyl ester]
Apparent Kinetic Solubility ([1]; listed as I): 1810 µg/mL
relative solubility among Forms I, VIII and IX [1]: highest solubility
XRD pattern after slurry in water ([3]; water, ambient temperature and 50° C., up to 6 days): did not show changes in XRD pattern
solubility in water [4]: practically insoluble
water content level needed to stabilize Form I (anhydrate) [5]: ≤ 24 wt %

CO[P@](=O)(c1cc(C)cc(/C=C/C#N)c1)c1c(C(N)=O)[nH]c2ccc(Cl)cc12 [Form VIII, (2-carbamoyl-5-chloro-1H-indol-3-yl)-[3-((E)-2-cyano-vinyl)-5-methyl-phenyl]-(R)-phosphinic acid methyl ester]
Apparent Kinetic Solubility ([1]; listed as VIII): 310 µg/mL
critical water activity level for Form I/Form VIII interconversion ([2]; methanol/water bridging experiments): 40-60 vol % water

CO[P@](=O)(c1cc(C)cc(/C=C/C#N)c1)c1c(C(N)=O)[nH]c2ccc(Cl)cc12 [compound of Formula I, (2-carbamoyl-5-chloro-1H-indol-3-yl)-[3-((E)-2-cyano-vinyl)-5-methyl-phenyl]-(R)-phosphinic acid methyl ester]
solubility ([6]; 1-propanol): ~2670 µg/mL
solubility ([6]; 2-butanol): < 2670 µg/mL
solubility ([6]; 2-propanol): < 2670 µg/mL
solubility ([6]; ethanol): 3640 µg/mL
solubility ([6]; methanol): 10000 µg/mL
solubility ([6]; nitromethane): 5710 µg/mL

Eglin c
potency of inhibition [7]: nanomolar potency inhibition

CO[P@](=O)(c1cc(C)cc(/C=C/C#N)c1)c1c(C(N)=O)[nH]c2ccc(Cl)cc12 [Form III]
XRD pattern after exposure to humidity [8]: no changes in XRD pattern
form after slurry (ripening) in methanol ([3]; neat methanol, about 1 day, ambient temperature): converted to Form I
form after non-competitive slurry in water ([3]; water, 3 days): resulted in Form VIII
XRD pattern after annealing (Annealing experiment): no change in the XRD pattern
